Measured values published in US20210121426A1, “BLOOD PURIFICATION BY ALKALINIZING AGENT” (TOHOKU UNIVERSITY, priority 2017, published 2021).
Marks after values point to notes of the source that are not given here.

Legend:
p-cresyl sulfate = assay: Human clinical trial in CKD patients: p-cresyl sulfate in plasma and early morning urine (LC-MS/MS); assay type: in vivo; parameters: key to Influence on concentration of PCS / Influence on PCS U/P ratio: Excellent effects: ◯; Poor effects: X; No significant difference: —; (◯): whether or not there is an effect of promoting excretion of indoxyl sulfate into the urine cannot be determined
Description: (§1) 1. […] Patients were assigned to each group so that age, sex, presence of diabetes, and eGFR were not biased. Each group was treated according to the “CKD medical care guide-summary of treatment” (hereinafter referred to as standard treatment).
(§2) An alkalinizing agent was not administered to the control group. […] A pH of early morning urine was controlled over time so that the dosage could be increased up to 6 tablets, 3 times a day (morning, noon, evening) as needed according to the discretion of the physician in cases where a pH of early morning urine was less than pH 6.5. To the group B, 3 tablets a day in which each tablet contained 500 mg of sodium bicarbonate were orally administered 3 times a day (morning, noon, evening) for 24 weeks. A pH of early morning urine was controlled over time so that the dosage could be increased up to 6 tablets, 3 times a day (morning, noon, evening) as needed according to the discretion of the physician in cases where a pH of early morning urine was less than pH 6.5.
(§3) Early morning urine and blood were collected before the start of administration, and 6 weeks, 12 weeks, and 24 weeks after the start of administration, and each specimen was stored at −80° C. Methods used in the present field for indoxyl sulfate, p-cresyl sulfate, phenylacetyl-L-glutamine, hippuric acid, and argininosuccinic acid in urine and blood (Sato, E., et. al., Metabolic alteration by indoxyl sulfate in skeletal muscle induce uremic sarcopenia in chronic kidney disease., Sci Rep. 2016 Nov. 10; 6:36618. doi: 10.1038/srep36618, and the like) were referred to, and quantitative analysis was performed using the following liquid chromatography triple quadrupole mass spectrometer (LC-MS/MS).
(§4) For LC, NANOSPACE SI-2 (manufactured by Shiseido) was used, and […] MGM was selected as the analytical column.
(§5) For MS, TSQ Quantiva (manufactured by Thermo Fisher Scientific Co., Ltd.) was used, and five compounds were ionized in the negative mode and detected using the Selected Reaction Monitoring method. The quantitative value was calculated using a calibration curve prepared with a standard solution of each compound.
(§6) For statistical analysis, the Mann-Whitney test was used for comparison between groups, and the Wilcoxon test was used for comparison of changes over time. The Pearson test was used for correlation.
(§7) Then, the average value and SD of each group were calculated for (i) to (ix) above. For each of (iv) to (ix) above, the average value and SD of each group were calculated for all data of 6 weeks, 12 weeks, and 24 weeks after the start of administration in each group.

hippuric acid = assay: Human clinical trial in CKD patients: hippuric acid in plasma and early morning urine (LC-MS/MS); assay type: in vivo; parameters: key to Influence on concentration of HA / Influence on HA U/P ratio: Excellent effects: ◯; Poor effects: X; No significant difference: —; (◯): whether or not there is an effect of promoting excretion of indoxyl sulfate into the urine cannot be determined
Description: as §1, §2, §3, §4, §5, §6, §7

β2-microglobulin = assay: Human clinical trial: urinary β2-microglobulin (latex agglutination method); assay type: in vivo
Description: as §1, §2, §3
In addition, the amount of urinary β2-microglobulin was measured by latex agglutination method using the LZ test “Eiken” β2-M and LZ-β2-M standard U “Eiken” (Eiken Chemical Co., Tokyo, Japan). Furthermore, the amount of cystatin C in the serum was measured by a colloidal gold agglutination method using Nescoat GC Cystatin C (Nm) (Alfresa Pharma, Osaka, Japan).
as §6

phenylacetyl-L-glutamine = assay: Urine phenylacetyl-L-glutamine (PAG) corrected by urinary specific gravity; assay type: in vivo, human
Excerpt: Medical Examination, Vol. 44, No. 1, 1995, pages 79-83 by Tetsuo Aoki et al. was referred to. A urinary specific gravity 1.022 was converted into a reference value.
Specific gravity correction value (unit/1.022·UG)=actual measurement value×(1.022−1.000)/(specific gravity value−1.000)

[1] = 0 W, before the start of administration
[2] = 6-24 W, all data of 6, 12 and 24 weeks
[3] = Plasma, comparison with reference drug
[4] = Urine, comparison with reference drug
[5] = compared to before administration

For `O=C([O-])O.[Na+]` [Bicarbonate, sodium bicarbonate], the “Plasma p-Cresyl Sulfate” value (p-cresyl sulfate; [1]) was 5402 ± 5209 ng/mL, the “Urine p-Cresyl Sulfate (early morning urine)” value (p-cresyl sulfate; [1]) was 66164 ± 97704 ng/mL and the “p-Cresyl Sulfate-Urine/Plasma ratio” value (p-cresyl sulfate; [1]) was 15.6 ± 11.1. The “Plasma p-Cresyl Sulfate” value (p-cresyl sulfate; [2]) was 4187 ± 4354 ng/mL, the “Plasma p-Cresyl Sulfate, change from week 0” value (p-cresyl sulfate; [2]) was -1038 ± 2773 ng/mL and the “Urine p-Cresyl Sulfate (early morning urine)” value (p-cresyl sulfate; [2]) was 52501 ± 73583 ng/mL. The “Urine p-Cresyl Sulfate, change from week 0” value (p-cresyl sulfate; [2]) was -13663 ± 74566 ng/mL, the “p-Cresyl Sulfate-Urine/Plasma ratio” value (p-cresyl sulfate; [2]) was 16.8 ± 13.9 ^d and the “p-Cresyl Sulfate-Urine/Plasma ratio, change from week 0” value (p-cresyl sulfate; [2]) was 1.20 ± 11.45. The “Plasma p-Cresyl Sulfate” value (p-cresyl sulfate; 6 W) was 4506 ± 5300 ng/mL, the “Plasma p-Cresyl Sulfate, change from week 0” value (p-cresyl sulfate; 6 W) was -895.9 ± 2153 ng/mL and the “Urine p-Cresyl Sulfate (early morning urine)” value (p-cresyl sulfate; 6 W) was 67744 ± 105548 ng/mL. The “Urine p-Cresyl Sulfate, change from week 0” value (p-cresyl sulfate; 6 W) was 1580 ± 51468 ng/mL, the “p-Cresyl Sulfate-Urine/Plasma ratio” value (p-cresyl sulfate; 6 W) was 17.0 ± 12.0 and the “p-Cresyl Sulfate-Urine/Plasma ratio, change from week 0” value (p-cresyl sulfate; 6 W) was 1.39 ± 8.25. For the same molecule, the “Plasma p-Cresyl Sulfate” value (p-cresyl sulfate; 12 W) was 3771 ± 4139 ng/mL, the “Plasma p-Cresyl Sulfate, change from week 0” value (p-cresyl sulfate; 12 W) was -1103 ± 2478 ng/mL and the “Urine p-Cresyl Sulfate (early morning urine)” value (p-cresyl sulfate; 12 W) was 37730 ± 48411 ng/mL. The “Urine p-Cresyl Sulfate, change from week 0” value (p-cresyl sulfate; 12 W) was -28434 ± 72253 ng/mL, the “p-Cresyl Sulfate-Urine/Plasma ratio” value (p-cresyl sulfate; 12 W) was 16.5 ± 17.9 and the “p-Cresyl Sulfate-Urine/Plasma ratio, change from week 0” value (p-cresyl sulfate; 12 W) was 0.91 ± 15.68. For the same molecule, the “Plasma p-Cresyl Sulfate” value (p-cresyl sulfate; 24 W) was 4284 ± 3682 ng/mL, the “Plasma p-Cresyl Sulfate, change from week 0” value (p-cresyl sulfate; 24 W) was -1119 ± 3631 ng/mL and the “Urine p-Cresyl Sulfate (early morning urine)” value (p-cresyl sulfate; 24 W) was 52029 ± 57779 ng/mL. The “Urine p-Cresyl Sulfate, change from week 0” value (p-cresyl sulfate; 24 W) was -14163 ± 95244 ng/mL, the “p-Cresyl Sulfate-Urine/Plasma ratio” value (p-cresyl sulfate; 24 W) was 17.0 ± 11.8 ^c and the “p-Cresyl Sulfate-Urine/Plasma ratio, change from week 0” value (p-cresyl sulfate; 24 W) was 1.31 ± 9.81. For the same molecule, the “Influence on concentration of PCS” value (p-cresyl sulfate; Plasma, comparison with Cont) was “—”, the “Influence on concentration of PCS” value (p-cresyl sulfate; [3]) was “◯” and the “Influence on PCS U/P ratio” value (p-cresyl sulfate; comparison with Cont) was “◯”. For the same molecule, the “Influence on PCS U/P ratio” value (p-cresyl sulfate; comparison with reference drug) was “—”, the “Influence on concentration of PCS” value (p-cresyl sulfate; Urine, comparison with Cont) was “—” and the “Influence on concentration of PCS” value (p-cresyl sulfate; [4]) was “X”. For the same molecule, the “concentration of p-cresyl sulfate in plasma” value (p-cresyl sulfate; [5]) was “decreased”, the “concentration of p-cresyl sulfate in urine” value (p-cresyl sulfate; [5]) was “such an effect was not recognized” and the “Hippuric Acid-Urine/Plasma ratio” value (hippuric acid; [1]) was 304.5 ± 361.8. For the same molecule, the “Plasma Hippuric Acid” value (hippuric acid; [1]) was 742 ± 706 ng/mL, the “Urine Hippuric Acid (early morning urine)” value (hippuric acid; [1]) was 109249 ± 96133 ng/mL and the “Hippuric Acid-Urine/Plasma ratio” value (hippuric acid; [2]) was 265.8 ± 812.9. For the same molecule, the “Hippuric Acid-Urine/Plasma ratio, change from week 0” value (hippuric acid; [2]) was −50.2 ± 688.3^b, the “Plasma Hippuric Acid” value (hippuric acid; [2]) was 1091 ± 991 ng/mL and the “Plasma Hippuric Acid, change from week 0” value (hippuric acid; [2]) was 342.1 ± 838.5 ^e ng/mL. The “Urine Hippuric Acid (early morning urine)” value (hippuric acid; [2]) was 103027 ± 76475 ng/mL, the “Urine Hippuric Acid, change from week 0” value (hippuric acid; [2]) was -6221 ± 73493 ng/mL and the “Hippuric Acid-Urine/Plasma ratio” value (hippuric acid; 6 W) was 148.7 ± 119.2^f. The “Hippuric Acid-Urine/Plasma ratio, change from week 0” value (hippuric acid; 6 W) was −155.8 ± 312.2^a, the “Plasma Hippuric Acid” value (hippuric acid; 6 W) was 809 ± 496 ng/mL and the “Plasma Hippuric Acid, change from week 0” value (hippuric acid; 6 W) was 66.6 ± 681.8 ng/mL. For the same molecule, the “Urine Hippuric Acid (early morning urine)” value (hippuric acid; 6 W) was 98283 ± 80730 ng/mL, the “Urine Hippuric Acid, change from week 0” value (hippuric acid; 6 W) was -10966 ± 75133 ng/mL and the “Hippuric Acid-Urine/Plasma ratio” value (hippuric acid; 12 W) was 151.8 ± 115.8. The “Hippuric Acid-Urine/Plasma ratio, change from week 0” value (hippuric acid; 12 W) was −161.2 ± 302.1, the “Plasma Hippuric Acid” value (hippuric acid; 12 W) was 994 ± 806 ng/mL and the “Plasma Hippuric Acid, change from week 0” value (hippuric acid; 12 W) was 230.0 ± 655.6 ng/mL. The “Urine Hippuric Acid (early morning urine)” value (hippuric acid; 12 W) was 96346 ± 70315 ng/mL, the “Urine Hippuric Acid, change from week 0” value (hippuric acid; 12 W) was -12903 ± 61236 ng/mL and the “Hippuric Acid-Urine/Plasma ratio” value (hippuric acid; 24 W) was 523.0 ± 1438. The “Hippuric Acid-Urine/Plasma ratio, change from week 0” value (hippuric acid; 24 W) was 191.1 ± 1147, the “Plasma Hippuric Acid” value (hippuric acid; 24 W) was 1465 ± 1387^c ng/mL and the “Plasma Hippuric Acid, change from week 0” value (hippuric acid; 24 W) was 722.3 ± 1023 ^c ng/mL. For the same molecule, the “Urine Hippuric Acid (early morning urine)” value (hippuric acid; 24 W) was 114453 ± 81562 ng/mL, the “Urine Hippuric Acid, change from week 0” value (hippuric acid; 24 W) was 5204 ± 85546 ng/mL and the “Influence on concentration of HA” value (hippuric acid; Plasma, comparison with Cont) was “X”. The “Influence on concentration of HA” value (hippuric acid; [3]) was “—”, the “Influence on HA U/P ratio” value (hippuric acid; comparison with Cont) was “X” and the “Influence on HA U/P ratio” value (hippuric acid; comparison with reference drug) was “—”. The “Influence on concentration of HA” value (hippuric acid; Urine, comparison with Cont) was “—”, the “Influence on concentration of HA” value (hippuric acid; [4]) was “—” and the “Urine B2-microglobulin” value (β2-microglobulin; [1]) was 99.0 ± 62.8 µg/L. The “Urine B2-microglobulin” value (β2-microglobulin; [2]) was 206.2 ± 255.8^a μg/L, the “Urine B2-microglobulin, change from week 0” value (β2-microglobulin; [2]) was 148.3 ± 258.4 ^b ug/L and the “Urine B2-microglobulin” value (β2-microglobulin; 6 W) was 216.3 ± 228.2^e μg/L. The “Urine B2-microglobulin, change from week 0” value (β2-microglobulin; 6 W) was 117.3 ± 220.7 µg/L, the “Urine B2-microglobulin” value (β2-microglobulin; 12 W) was 264.5 ± 301.9 µg/L and the “Urine B2-microglobulin, change from week 0” value (β2-microglobulin; 12 W) was 165.5 ± 282.0^ ug/L. The “Urine B2-microglobulin” value (β2-microglobulin; 24 W) was 261.0 ± 301.5^c,f μg/L, the “Urine B2-microglobulin, change from week 0” value (β2-microglobulin; 24 W) was 162.0 ± 281.8 ^c ug/L and the “kidney tubular damage (kidney proximal tubular damage) associated with progression of the stage” value (β2-microglobulin; from urinary β2-microglobulin) was “did not suppress”. For the same molecule, the “Urine PAG, specific gravity corrected” value (phenylacetyl-L-glutamine; 0 W) was 203.6 ± 169.1 μg · mL^−1/1.022 · UG, the “Urine PAG, specific gravity corrected” value (phenylacetyl-L-glutamine; 6-24 W, all data) was 162.0 ± 182.5 μg · mL^−1/1.022 · UG and the “Urine PAG, specific gravity corrected, % Relative value vs week 0” value (shortened to “Urine PAG … % Relative value vs week 0”) (phenylacetyl-L-glutamine; 6-24 W, all data) was 87 ± 60%. The “Urine PAG, specific gravity corrected, difference vs week 0” value (from here on “Urine PAG … difference vs week 0”) (phenylacetyl-L-glutamine; 6-24 W, all data) was −41.6 ± 126.8 μg · mL^−1/1.022 · UG, the “Urine PAG, specific gravity corrected” value (phenylacetyl-L-glutamine; 6 W) was 202.9 ± 260.9 μg · mL^−1/1.022 · UG and the “Urine PAG … % Relative value vs week 0” value (phenylacetyl-L-glutamine; 6 W) was 97 ± 71%. For the same molecule, the “Urine PAG … difference vs week 0” value (phenylacetyl-L-glutamine; 6 W) was −0.7 ± 162.0 μg · mL^−1/1.022 · UG, the “Urine PAG … % Relative value vs week 0” value (phenylacetyl-L-glutamine; 12 W) was 76 ± 60% and the “Urine PAG … difference vs week 0” value (phenylacetyl-L-glutamine; 12 W) was −67.6 ± 91.9 ^ μg · mL^−1/1.022 · UG. The “Urine PAG, specific gravity corrected” value (phenylacetyl-L-glutamine; 24 W) was 147.1 ± 116.4 μg · mL^−1/1.022 · UG, the “Urine PAG … % Relative value vs week 0” value (phenylacetyl-L-glutamine; 24 W) was 88 ± 49% and the “Urine PAG … difference vs week 0” value (phenylacetyl-L-glutamine; 24 W) was −56.5 ± 113.7 μg · mL^−1/1.022 · UG.
